Here are results for 61 compounds from PubChem BioAssay AID588398 (Broad Institute, 2011).

As usually defined, the AC50 is the midpoint of the concentration-response curve, whichever way the signal moves. Low readings indicate activity at low concentration, high ones activity only at high concentration.

Results filed as inconclusive are left out.

This assay can be described thus: TES1-eGFP NF-kB reporter inhibition versus Tet-On dsRED, dose response, selectivity assay for LMP1 NF-kB inhibitor project, imaging, HEK293T, dual-color eGFP/dsRED, cherry-picks (AID 588398). To be noted: 48 h, dsRED channel counter-screen. (In general: Counterscreens check selectivity or assay interference.)
`CCCCC(=O)NC(c1ccc(OC)c(OC)c1)c1ccc2cccnc2c1O` (stereo unspecified): the AC50 was 13.6 µM.
The result for `COc1ccc(N/N=C/c2c(C(=O)O)ccc3ccccc23)cc1` reads 12.4 µM.
As for `Cc1ccc(-c2csc(=Nc3cccnc3)n2CCCn2ccnc2)cc1C`, the figure is 5.1 µM; as for `S=C(NN=Cc1ccccn1)Nc1ccccn1`, more than 19.5 µM.
The result for `CCC(=O)NC(c1ccc(Cl)cc1Cl)c1ccc2cccnc2c1O` (stereo unspecified) reads 4.23 µM.
In turn, `CC(=NNc1nc2ccccc2s1)c1ncccn1` yielded an AC50 of 7.33 µM.
The result for `CCN(CC)c1ccc(/C=N/NC(=O)c2ccc3nc[nH]c3c2)c(O)c1` reads 16.9 µM; that for `COc1cccc(/C=N/NC(=O)c2[nH]nc3c2CCc2ccccc2-3)c1O`, 5.87 µM.
As for `CC(=O)NC(c1ccc(Cl)cc1Cl)c1ccc2cccnc2c1O` (stereo unspecified), the figure is 5.82 µM; as for `COc1ccc(-n2c(C)c(C(C)=O)c3cc(OC(C)=O)ccc32)cc1`, 1 µM; as for `O=C(N/N=C/c1ccc[nH]1)c1ccc(COc2cccc3cccnc23)cc1`, 19.2 µM.
In turn, `COc1ccc(-c2csc(Nc3cccc(C)n3)n2)cc1OC` had an AC50 of more than 19.5 µM.
Regarding `CCCN(CC)c1ncnc2[nH]ncc12`, the AC50 is 1.41 µM. This lies in the single-digit micromolar range.
The result for `Cc1ccccc1C(=O)N1CCN(c2ccc(NC(=O)CSc3ccc(Cl)cc3)cc2)CC1` reads 0.253 µM.
The result for `O=C(Nc1ccc(C(=O)N2CCOCC2)cc1)Nc1cccc(C(F)(F)F)c1` reads 0.966 µM; that for `O=C(N/N=C/c1c(O)ccc2ccccc12)c1cccnc1`, 4.3 µM.
The result for `NC(=O)c1sc2nccc(Nc3ccccc3)c2c1N` reads 4.04 µM; that for `C#CCN(C[C@@H]1[C@@H](OC(=O)NCC2CCCCC2)[C@@H](OC(=O)NCC2CCCCC2)Cn2c(=O)ccc(=O)n21)S(=O)(=O)c1ccc(C)cc1`, 2.83 µM.
`O=Cc1ccc(-c2cccs2)s1` had an AC50 of 2.71 µM. The AC50 values of the last two compounds are within 1.5-fold of each other.
Consider `Cc1nn(-c2ccccc2)c(Cl)c1C1C(C#N)=C(N)Oc2n[nH]c(C)c21` (stereo unspecified), for which the AC50 was determined as 11.5 µM. This AC50 is about 4.2-fold higher than that of the compound before.
The result for `C/C(=N/NC(=O)c1ccc(C(C)(C)C)cc1)c1ccccn1` reads 14.3 µM.
As for `CC(=NNc1nc2ccccc2o1)c1cc2ccccc2cn1`, the figure is 3.99 µM; as for `COc1ccc(-c2csc3ncnc(Sc4nnnn4C)c23)cc1`, 10.5 µM.
As for `COc1ccc(-n2c(C)c([N+](=O)[O-])c3ccc(O)c(CN(C)C)c32)cc1`, the figure is 0.665 µM.
The compound `CCn1c2ccccc2c2cc(/C=N/NC(=O)c3cc(O)cc(O)c3)ccc21` returned an AC50 of 2.14 µM.
With `CCN1CCN(Cc2ccc(NC(=O)c3ccc(C)c(NC(=O)c4ccno4)c3)cc2C(F)(F)F)CC1`, the AC50 came out at 0.0579 µM. This AC50 lies about 37-fold lower than the previous one.
The result for `CC(=NNC(=S)Nc1ccccc1)c1ccccn1` reads 1.37 µM; that for `O=C(CF)N(O)c1ccc(C=Cc2ccccc2)cc1`, 1.51 µM; that for `CC(=NNC(=S)N1CC2CCC(CC2)C1)c1nccs1`, 4.15 µM.
`Cc1[nH]n(-c2ccc(Br)cc2)c(=O)c1/C=N/NC(=O)c1ccccc1` registered an AC50 of 11.2 µM.
The result for `CC(=NNC(=S)N1CCCC1)c1ccccn1` reads 17.8 µM; that for `Cc1cc(C)nc(N/C(=N\S(=O)(=O)Cc2ccccc2)Nc2ccccc2Br)n1`, 18.1 µM.
As for `CC[C@]1(C(=O)OC)[C@H]2C(=O)N(Cc3ccccc3)C(=O)[C@H]2[C@H]2CN=C(SCc3ccc(Cl)cc3)N21`, the figure is 1.32 µM.
As for `CCOc1ccc(Nc2ncnc3ccc([N+](=O)[O-])cc23)cc1`, the figure is 1.93 µM; as for `Cc1cc(=O)[nH]c(NN=Cc2cc(Br)ccc2O)n1`, 8.82 µM.
`Cc1nn(-c2ccccc2)c(Cl)c1C(=O)N1CCN(c2ncnc3c2cnn3-c2ccccc2)CC1` showed an AC50 of 12.9 µM.
The result for `CC1CC(C)C(=O)C(C(CC2CC(=O)NC(=O)C2)OC(=O)CC(=O)c2ccccc2)C1` (stereo unspecified) reads 5.02 µM; that for `C#CCN(C[C@@H]1[C@@H](OC(=O)NCc2ccccc2F)[C@@H](OC(=O)NCc2ccccc2F)Cn2c(=O)ccc(=O)n21)S(=O)(=O)c1ccc(C)cc1`, 3.9 µM; that for `COc1ccc(-c2csc3ncnc(NCCCO)c23)cc1`, 4.81 µM.
As for `CC(=NNc1nc2ccccc2o1)c1ncccn1`, the figure is 1.13 µM; as for `CN(CCNC(=O)C1CCN(S(=O)(=O)N2CCOCC2)CC1)CCc1ccccc1`, more than 19.5 µM.
The result for `COc1ccc(N2Cc3ccccc3C2=O)cc1` reads more than 19.5 µM.
Turning to `O=S(=O)(c1ccc2c(c1)C(=NO)c1cc(S(=O)(=O)N3CCCCC3)ccc1-2)N1CCCCC1`, the AC50 was more than 19.5 µM.
The result for `CC(=NNC(=S)Nc1ccccc1Cl)c1ccccn1` reads 1.37 µM; that for `CNc1cccnc1C=NNC(N)=S`, 12.8 µM.
`CC1CCN(C(=O)/C(=C\c2cccs2)NC(=O)c2ccccc2)CC1` yielded an AC50 of more than 19.5 µM.
As for `CCn1c2ccccc2c2cc(/C=N/n3c(-c4cc(C)[nH]n4)n[nH]c3=S)ccc21`, the figure is 0.862 µM.
The result for `O=c1c(O)c(-c2ccc(O)c(O)c2)oc2cc(O)cc(O)c12` reads more than 19.5 µM.
The result for `Cc1cc(C)n(-c2ccc(NN=C(C#N)C#N)cc2)n1` reads 5.01 µM; that for `Cc1ccc(C(=O)Nc2cccc(C(F)(F)F)c2)cc1Nc1ncnc2nc[nH]c12`, 9.97 µM.
`c1ccc(C(=NNc2nc3ccccc3s2)c2ccccn2)cc1` displayed an AC50 of 1.48 µM.
The compound `CCOC(=O)c1c(-n2cccc2)sc2c1CCCC2=O` displayed an AC50 of 11 µM.
As for `COC(=O)[C@@]1(C)[C@H]2C(=O)N(Cc3ccccc3)C(=O)[C@H]2[C@H]2CN=C(SCc3ccc(Cl)cc3)N21`, the figure is 2.41 µM; as for `N#CC(C#N)=NNc1ccc(-n2ccc(C(F)(F)F)n2)cc1`, 6.47 µM.
As for `COc1ccc(C=C2CS(=O)(=O)CC(=Cc3ccc(OC)cc3)C2=O)cc1`, the figure is 1.61 µM.
With `Oc1ccc2ccccc2c1N=Nc1ccccn1`, the AC50 is 7.53 µM.
In turn, `CCCC(=O)NC(c1ccc(C(C)C)cc1)c1ccc2cccnc2c1O` (stereo unspecified) returned an AC50 of 4.16 µM.
As for `OCCCNc1nccc(-c2cc(Nc3cccc(Cl)c3)ncn2)n1`, the figure is 4.72 µM; as for `CC[C@]1(C(=O)OC)[C@H]2C(=O)N(Cc3ccccc3)C(=O)[C@H]2[C@H]2CN=C(SCc3ccc(C#N)cc3)N21`, 2.82 µM; as for `Cc1cc(N2CCOCC2)c2c(N)c(Br)cc(C)c2n1`, 3.34 µM.
As for `CCn1c2ccccc2c2cc(/C=N/NC(=O)c3ccncc3)ccc21`, the figure is 1.68 µM.
